The results in this text go back to paper PMC8145596, “Novel Chemically Modified Curcumin (CMC) Derivatives Inhibit Tyrosinase Activity and Melanin Synthesis in B16F10 Mouse Melanoma Cells” (Biomolecules, 2021).

“Also recorded” adds a separate entry of the source. Like-named read-outs stand apart in the source and are kept apart here.

One test concerns the target mushroom tyrosinase (Agaricus bisporus, UniProt C7FF04). Put plainly: Monophenolase activity assay of mushroom tyrosinase (L-Tyrosine substrate). It counts as biochemical. To be noted: for mechanism of inhibition of monophenolase activity: L-B and Dixon plots, nonlinear curve fitting; for Ki: read-out: apparent Ki, monophenolase (L-TYR). The procedure: The direct effects of the compounds on the monophenolase activity of tyrosinase were tested using mushroom tyrosinase enzyme with a fixed concentration of L-Tyrosine (L-Tyr) as the substrate. Briefly, 80 µL of compounds prepared at different concentrations in 50 mM sodium phosphate (pH 6.8) buffer were added to wells of a 96-well microplate followed by 100 µL of 2 mM L-Tyr solution. The reaction was initiated by adding 20 µL of mushroom tyrosinase (final concentration of enzyme in wells was 12.5 µg/mL) and was monitored by measuring absorbance at 475 nm every 30 s over a 30 min period, using a microplate reader (Versamax®) in the kinetic mode. The slopes of the plots of absorbance vs. time were calculated for comparison of enzyme activity in the presence of each of the inhibitors to that of an inhibitor-free control and reported as percentage of control activity (%).
In order to study the mechanism of inhibition of tyrosinase activity by the compounds as a function of substrate concentration, we conducted a kinetic study of monophenolase and diphenolase activities at multiple concentrations of substrates. For the monophenolase activity assay, the final concentration of enzyme was 12.5 µg/mL and the final substrate concentrations were 0.125, 0.25, 0.5 and 1 mM, while for diphenolase activity assay, the final concentration of enzyme was 3.5 µg/mL and the final substrate concentrations ranged from 0.1–3 mM. The slopes from the linear range of the progress curves of absorbance at 475 nm vs. time were recorded as apparent velocities and the reciprocal values, 1/v, were plotted as functions of the reciprocal values of the substrate concentrations at different fixed inhibitor concentrations according to the method of Lineweaver and Burk (L-B). Dixon plots of the reciprocal velocity values, (1/v), as functions of the inhibitor concentrations at different fixed substrate concentrations were also constructed to investigate further the apparent mode of inhibition by the compounds.
We have also analyzed the inhibition data using nonlinear curve fitting algorithms which are more robust than the linearized L-B and Dixon plotting methods that can weigh the data from evenly spaced concentrations disproportionately. The inhibition constants were calculated by non-linear least squares curve fitting using a modified Levenberg-Marquardt algorithm and data was fitted to models of pure competitive, noncompetitive, and uncompetitive inhibition using Enzfitter software (version 2.0, Biosoft, Cambridge, UK). This analysis was undertaken to assess the apparent potency of compounds, PC, CMC2.24, and CMC2.23 for each putative mode of inhibition.

The test system of test [1] is tyrosinase activity in B16F10 cells. Put plainly: Intracellular tyrosinase activity in B16F10 cell lysates. In kind it is cell-based, mouse. The conditions noted are these: 48 h. Here is the method: B16F10 cells (4 × 10^4 cells/well in 1 mL medium) were cultured in 24-well plates for 24 h. After that, the medium was replaced by fresh medium containing the compounds, and further incubated for 48 h. At the end of treatments, the cells were harvested, and cell pellets were washed in PBS and lysed and then centrifuged. Lysates (50 µL) were then aliquoted in a 96-well plate and 150 µL of 3 mM L-DOPA was added. The absorbance was measured at 475 nm every 30 s for 40 min at 30 °C using a microplate reader in the kinetic mode. The tyrosinase activity was calculated from the slope of the linear range of the velocity in the presence of each test compound and normalized to the total protein content and reported as % of control.

The target in test [2] is T1, α-glucosidase enzyme from Baker’s yeast (Saccharomyces cerevisiae, UniProt P53341).
T1 construct: purchased Sigma-Aldrich (St. Louis, MO, USA)
Put plainly: Cell-free α-glucosidase assay. In kind it is biochemical. Here is the method: The effects of compounds on α-glucosidase were assayed based on the method decribed previously with some modifications. 80 µL of samples (prepared in 0.05 M phosphate buffer, pH 6.8) were aliquoted in a 96-well microplate followed by the addition of 100 µL of 2.4 mM pNG substrate solution. A volume of 20 µL of 0.45 units of α-glucosidase enzyme from Baker’s yeast prepared in 0.05 M buffer was added to start the reaction; the rate of the formation of p-nitrophenol was monitored at 405 nm for 15 min at 37 °C in a microplate reader in kinetic mode. The enzyme activity (%) was calculated as: (rate of sample reaction/rate of control reaction) × 100%.

Test [3] has as its system tyrosinase activity in B16F10 cells. Put plainly: Recovery study of intracellular tyrosinase activity. In kind it is cell-based, mouse. The procedure: In order to establish reversibility of tyrosinase inhibition by the CMCs, we conducted a recovery study for 48 h using the highest concentrations of the compounds that produced maximum inhibition of tyrosinase activity. B16F10 cells were plated in six-well plates at 3.5 × 10^4 cells/well and then compounds were added the next day. Tyrosinase activity was estimated after 48 h exposure in cellular lysates and another set of cultures were continued with fresh medium without the compounds to study the recovery of tyrosinase activity for 48 h. Results are expressed as % tyrosinase activity for both 48 h exposure and 48 h recovery.

The subject of test [4] is α-glucosidase activity in B16F10 cells. Put plainly: Intracellular α-glucosidase assay. It counts as cell-based, mouse. To be noted: 48 h; for inhibition at 10 µM / inhibition at 20 µM / inhibition at 25 µM / inhibition at 5 µM: Mus musculus, B16-F10, read-out: inhibition of cellular α-glucosidase activity. Here is the method: B16F10 cells (2.2 × 10^5) were grown in 6-well plates and compounds were added next day for 48 h. Cells were harvested, lysed and 50 µL of lysates were aliquoted in a 96-well plate with 100 µL of 2 mM pNG substrate; rate of the formation of the yellow-colored reaction product, p-nitrophenol, was monitored at 405 nm for 30 min at 37 °C in a microplate reader (kinetic mode) and values were normalized to total protein contents. The cellular α-glucosidase activity was calculated as (rate of sample reaction/rate of control reaction) × 100 and was expressed as percentage of control.

Setting [5] is: Mus musculus, B16-F10, 48 h, read-out: loss of tyrosinase activity after 48 h exposure (recovery study).

mushroom tyrosinase, sequence (C7FF04 1-392): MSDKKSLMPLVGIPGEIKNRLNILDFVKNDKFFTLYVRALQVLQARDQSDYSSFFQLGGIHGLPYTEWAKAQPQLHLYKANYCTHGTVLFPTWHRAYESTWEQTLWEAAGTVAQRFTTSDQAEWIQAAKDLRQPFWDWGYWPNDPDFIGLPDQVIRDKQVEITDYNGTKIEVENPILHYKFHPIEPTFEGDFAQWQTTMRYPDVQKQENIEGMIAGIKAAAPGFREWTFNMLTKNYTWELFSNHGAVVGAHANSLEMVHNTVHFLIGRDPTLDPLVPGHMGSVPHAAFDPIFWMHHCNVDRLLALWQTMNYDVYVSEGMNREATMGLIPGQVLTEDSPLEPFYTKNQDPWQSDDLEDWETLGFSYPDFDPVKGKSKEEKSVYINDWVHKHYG
T1 sequence (P53341 whole entry): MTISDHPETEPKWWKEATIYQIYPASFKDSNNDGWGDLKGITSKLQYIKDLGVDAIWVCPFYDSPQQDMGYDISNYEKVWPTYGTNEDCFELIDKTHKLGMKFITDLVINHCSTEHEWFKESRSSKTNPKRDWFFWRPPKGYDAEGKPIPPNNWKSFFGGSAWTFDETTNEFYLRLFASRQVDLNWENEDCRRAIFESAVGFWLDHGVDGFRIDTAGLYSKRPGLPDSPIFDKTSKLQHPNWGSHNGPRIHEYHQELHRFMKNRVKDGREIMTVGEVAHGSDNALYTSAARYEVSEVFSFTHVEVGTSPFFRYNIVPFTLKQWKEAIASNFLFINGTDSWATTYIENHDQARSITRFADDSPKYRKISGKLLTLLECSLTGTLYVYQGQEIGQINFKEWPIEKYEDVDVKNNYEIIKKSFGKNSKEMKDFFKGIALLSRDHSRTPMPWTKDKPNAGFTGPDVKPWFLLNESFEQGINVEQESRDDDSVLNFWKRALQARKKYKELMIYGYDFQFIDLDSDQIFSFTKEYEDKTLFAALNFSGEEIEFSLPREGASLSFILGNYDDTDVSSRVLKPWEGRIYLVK

For the compound “1,7-bis(4-hydroxy-3-methoxyphenyl)-1,6-heptadien-3,5-dione [PC, reference compound]”, the “inhibition of monophenolase activity” value was determined as 14.41% at mushroom tyrosinase (10 μM compound), 21.31% on mushroom tyrosinase (20 μM compound) and 22.10% on mushroom tyrosinase (25 μM compound). Also, the “mechanism of inhibition of monophenolase activity” value on mushroom tyrosinase was “not a pure competitive inhibitor; also recorded: mixed inhibitor”. Besides, the Ki on mushroom tyrosinase (fit to pure competitive inhibition) amounted to 7.74 µM; on mushroom tyrosinase (fit to pure noncompetitive inhibition), 50.8 µM; at mushroom tyrosinase (fit to pure uncompetitive inhibition) it was 40.2 µM. Further, at mushroom tyrosinase (fixed substrate concentration (L-Tyr), read-out: IC50 for Monophenolase Inhibition), the IC50 (in general, the concentration that gives 50% inhibition) came to 67 ± 2.4 µM. In test [1] (10 µM), the “suppression of intracellular tyrosinase activity” value (“suppression” for short) came out at 47.85%. The “inhibition of cell-free α-glucosidase activity” value in test [2] (5 µM) stood at 20.13%; in test [2] (10 µM), 22.13%. Further, the inhibition in test [3] (10 µM, read-out: loss of tyrosinase activity after 48 h exposure (recovery study)) was 89.5%. In test [3] (after exposure to 10 µM), the “tyrosinase activity after 48 h recovery in compound-free medium” value was “did not differ from that of the control group”. Also, the results for the “inhibition of cellular α-glucosidase activity” value in test [4] (5 µM) and in test [4] (10 µM) were 13.71% and 10.47%, respectively.

Consider `COC(=O)/C(C(=O)/C=C/c1ccc(O)c(OC)c1)=C(O)\C=C\c1ccc(O)c(OC)c1` [CMC2.5, 4-methoxycarbonyl curcumin], for which the “suppression” value was 19.98% in test [1] (10 µM), 23.16% in test [1] (20 µM) and 26% in test [1] (25 µM). Moreover, the inhibition at 20 µM is 14% in test [2], 42.5% in test [3] (setting [5]) and 25.6% in test [4]. Moreover, the “cell-free α-glucosidase activity” value in test [2] (concentrations other than 20 µM) is listed as “no change was observed at any other concentration”. Moreover, the “tyrosinase activity after 48 h recovery in compound-free medium” value in test [3] (after exposure to 20 µM) is recorded as 100%. Also, in test [4] (10 µM), the inhibition at 10 µM was found to be 12.4%. Further, the inhibition at 25 µM in test [4] (25 µM) worked out at 27.4%.

On to `COC(=O)/C(C(=O)/C=C/c1ccc(O)cc1)=C(O)\C=C\c1ccc(O)cc1` [CMC2.14], for which the entries for the “suppression” value in test [1] (5 µM) and in test [1] (10 µM) were 47.96% and 50.31%, respectively. Also, the inhibition at 10 µM was 14.3% in test [2] (10 µM); 74.8% in test [3] (Mus musculus, B16-F10, 48 h, 10 µM, read-out: loss of tyrosinase activity after 48 h exposure (recovery study)); 16.5% in test [4] (10 µM). Also, the “tyrosinase activity after 48 h recovery in compound-free medium” value in test [3] (after exposure to 10 µM) was 100%.

With `COc1cc(/C=C/C(=O)/C(C(=O)Nc2ccccc2)=C(O)/C=C/c2ccc(O)c(OC)c2)ccc1O` [CMC2.23], the “mechanism of inhibition of monophenolase activity” value at mushroom tyrosinase was “mixed, but predominantly competitive, mode of inhibition”. Moreover, the “suppression” value in test [1] (10 µM) is 30.04%; in test [1] (20 µM), 44.64%; in test [1] (25 µM) it was 51.47%. The inhibition at 5 µM was determined as 15.5% in test [2] (5 µM) and 12.4% in test [4] (5 µM). For the same compound, the figures for the inhibition at 10 µM in test [2] (10 µM) and in test [4] (10 µM) were 16.5% and 14.9%, respectively. Moreover, the results for the inhibition at 20 µM in test [2], in test [3] (setting [5]) and in test [4] were 19.8%, 52.7% and 11.8%, respectively. The compound further showed an inhibition at 25 µM in test [2] of 17.2%. In test [4] (25 µM), the “inhibition of cellular α-glucosidase activity” value was “no change”.

Turning to `O=C(/C=C/c1ccc(O)cc1)/C(C(=O)Nc1ccccc1)=C(O)/C=C/c1ccc(O)cc1` [CMC2.24], the inhibition at 5 µM at mushroom tyrosinase (5 μM compound, 1 mM L-Tyr final) was found to be 32.1%; in test [2] (5 µM), 27.1%; in test [4] (5 µM), 10.2%. Further, the inhibition at 10 µM turned out to be 34.7% on mushroom tyrosinase (10 μM compound), 25.6% in test [2] (10 µM) and 12.6% in test [4] (10 µM). Further, the inhibition at 20 µM at mushroom tyrosinase (20 μM compound) amounted to 34.8%; in test [2] it was 35.3%; in test [3] (setting [5]), 73.3%; in test [4], 20.3%. Also, the inhibition at 25 µM on mushroom tyrosinase (25 μM compound) came out at 37%; in test [2], 41.3%; in test [4] (25 µM), 16.4%. Further, the “mechanism of inhibition of monophenolase activity” value on mushroom tyrosinase was “mixed mode of inhibition with a predominantly competitive mechanism”. Also, the “suppression” value is listed as 38.6% in test [1] (5 µM), 53.76% in test [1] (10 µM), 64.25% in test [1] (20 µM) and 68.81% in test [1] (25 µM).
